Test results as given in US4868207A, “Bis (methylenedioxy) biphenyl compounds useful for the treatment of liver diseases” (priority 1988, dated 1989).
Entries after “also recorded” stand apart in the source; their conditions may differ.

How the values were obtained:
Assay type in all cases: in vivo
[1] = system: mortality induced by acetaminophen in mice; experiment: Effect on mortality induced by acetaminophen in mice; details: 200 mg/kg
Excerpt: (§1) Throughout the following experiments, male mice weighing 18-22 g were used, and unless otherwise indicated, the compound of the present invention [6-methoxycarbonyl-6'-hydroxymethyl-2,3,2',3'-bis(methylenedioxy)-4,4'-dimethoxybiphenyl (hereinafter referred to as "Compound 1")]]and DDB of a comparative drug are each suspended in 2% of Tween-80 before administered orally.
(C) Effect on mortality induced by acetaminophen in mice (14 mice per group)
Each group consisted of 14 mice. The procedure of the treatment was the same as mentioned in the item (B). All mice were given i.p. 400 mg/kg of acetaminophen 24 hours after the second dose of Compound 1. Survival numbers of mice were recorded within 5 days.

[2] = system: thioacetamide-intoxicated mice; experiment: Effect on SGPT, SGOT and liver triglyceride levels in thioacetamide-intoxicated mice; details: for Liver triglyceride / SGOT / SGPT: oral; for Liver triglyceride: control 104 ± 35; for SGOT / SGPT: ± SD; for SGOT: control 1174 ± 435, Compound 1 P < 0.001; for SGPT: control 2365 ± 1045, Compound 1 P < 0.05
Excerpt: as §1
(§2) Each group consisted of nine mice. The treated groups of mice were given three doses of Compound 1 twice at an interval of 8 hours on the first day, while one group was given corresponding volume of 2% of Tween-80 as control. At 4 p.m. of the second day, all mice were given i.p. 10 ml/kg of 0.1% of carbon tetrachloride in peanut oil. After a 16 hour fasting, all mice were sacrificed by decapitation. Serum transaminase (SGPT, SGOT) levels were determined.
(D) Effect on SGPT, SGOT and liver triglyceride levels in thioacetamide-intoxicated mice (9 mice per group)
Each group consisted of nine mice. The procedure of this experiment was just the same as mentioned in carbon tetrachloride-hepatotoxicity test. Only 50 mg/kg of thioacetamide was instread of carbon tetrachloride.

[3] = system: male kunming strain mice; experiment: Acute toxicity; details: 3 g/20 ml/kg and 6 g/20 ml/kg, oral
Method: Ten male kunming strain mice weighing 18-20 g were used, and starved overnight. Compound 1 was suspened in 0.2% CMC-Na, and 5 mice were given orally compound 1 in a dose of 3 g/20 ml/kg. The other 5 mice were given 6 g/20 ml/kg.

[4] = system: drug metabolism enzyme; experiment: Effect on pentobarbital sleeping time in mice; details: for Sleeping time: 200 mg/kg oral, ± SD, control 49 ± 22
Method: (E) Effect on pentobarbital sleeping time in mice (10 mice per group)
Three groups of 10 mice were used in this experiment. […] The mice of control were given physiological saline. The interval between the lose and return of righting reflex of each mouse was recorded as sleeping time.

[5] = system: acetaminophen-intoxicated mice; experiment: Effect on SGPT, SGOT and liver triglyceride levels in acetaminophen-intoxicated mice; details: for Liver triglyceride / SGPT / SGOT: oral; for Liver triglyceride: control 57.4 ± 18.3; for SGPT / SGOT: ± SD; for SGPT: control 1504 ± 330; for SGOT: control 1695 ± 390
Excerpt: as §1
(B) Effect on SGPT, SGOT and liver triglyceride levels in acetaminophen-intoxicated mice
Thirty six mice were divided equally into 4 groups. On the first day, one group was given 2% of Tween-80 as control, while other groups were each given two doses of Compound 1 at an interval of 8 hours. All mice were injected i.p. 110 mg/kg of acetaminophen 16 hours after the last administration of Compound 1. After fasting overnight, all mice were decapited. SGPT, SGOT and liver triglyceride levels were determined.

[6] = system: carbon tetrachloride-intoxicated mice; experiment: Effect on SGPT and SGOT levels in carbon tetrachloride-intoxicated mice; details: for SGOT / SGPT: oral, ± SD; for SGOT: control 2087 ± 131; for SGPT: control 3110 ± 50
Excerpt: as §1
Effect on SGPT and SGOT levels in carbon tetrachloride-intoxicated mice (9 mice per group)
as §2

[7] = 1 hr before pentobarbital 50 mg/kg i.p., P DDB <0.05, Compound 1 <0.001
[8] = 24 hrs before pentobarbital 50 mg/kg i.p., P DDB <0.01, Compound 1 <0.001
[9] = 200 mg/kg (DDB 200 mg/mg [sic])
[10] = 200 mg/kg (DDB 200 mg/mg [sic]), Compound 1 P < 0.001
[11] = 200 mg/kg (DDB 200 mg/mg [sic]), DDB P < 0.05, Compound 1 P < 0.001
[12] = 200 mg/kg, DDB P < 0.05, Compound 1 P < 0.001

COC(=O)c1cc(OC)c2c(c1-c1c(CO)cc(OC)c3c1OCO3)OCO2 [Compound 1, 6-methoxycarbonyl-6'-hydroxymethyl-2,3,2',3'-bis(methylenedioxy)-4,4'-dimethoxybiphenyl]
Number of survival ([1]; 400 mg/kg acetaminophen i.p., of 14 mice, within 5 days, control 3): 11
Mortality ([1]; 400 mg/kg acetaminophen i.p., within 5 days, control 78): 21%
mortality of mice induced by acetaminophen ([1]; result in words): significantly decreased
Liver triglyceride ([2]; 200 mg/kg): 115 ± 31 mg/kg
SGOT ([2]; 200 mg/kg): 565 ± 130 u/dl
SGPT ([2]; 200 mg/kg): 1430 ± 550 u/dl
lowering SGPT and SGOT levels elevated by thioacetamide ([2]; 200 mg/kg, result in words): effective in lowering SGPT and SGOT levels
protective effect against hepatotoxicity induced by thioacetamide ([2]; result in words): protective effect against hepatotoxicity
death ([3]; within 2 weeks): no death occured
change of the behavior of the mice ([3]; within 48 hours): No noticeable change of the behavior of the mice
Sleeping time [4, 7]: 214 ± 85 min
Sleeping time [4, 8]: 20 ± 8 min
pentobarbital sleeping time ([4]; 200 mg/kg, one hour before pentobarbital, result in words): significantly prolonged
pentobarbital sleeping time ([4]; 24 hours prior to pentobarbital, result in words): markedly shortened
action on drug metabolism enzyme ([4]; indirectly indicated by sleeping time, result in words): inductive action on drug metabolism enzyme; also recorded: increases the activity of drug metabolism enzymes
Liver triglyceride ([5]; 100 mg/kg): 52.0 ± 13.8 mg/kg
SGPT ([5]; 100 mg/kg, P < 0.05): 935 ± 660 u/dl
SGOT ([5]; 100 mg/kg, P < 0.05): 1000 ± 651 u/dl
Liver triglyceride [5, 9]: 50.0 ± 27.6 mg/kg
SGPT [5, 10]: 550 ± 495 u/dl
SGOT [5, 11]: 565 ± 522 u/dl
lowering SGPT and SGOT levels elevated by acetaminophen ([5]; 200 mg/kg, 100 mg/kg, result in words): effective in lowering SGPT and SGOT levels
liver lesions such as inflammation and necrosis ([5]; result in words): ameliorated
liver triglyceride level elevated by acetaminophen ([5]; result in words): reduced
protective effect against hepatotoxicity induced by acetaminophen ([5]; result in words): protective effect against hepatotoxicity
SGOT ([6]; 50 mg/kg, 9 mice per group): 1826 ± 203 u/dl
SGPT ([6]; 50 mg/kg, 9 mice per group): 2523 ± 273 u/dl
SGOT ([6]; 100 mg/kg): 1739 ± 192 u/dl
SGPT ([6]; 100 mg/kg, Compound 1 P < 0.01): 2126 ± 371 u/dl
SGPT level ([6]; 100 mg/kg, result in words): markedly decreased
SGOT ([6]; 200 mg/kg, Compound 1 P < 0.01): 1362 ± 148 u/dl
SGPT [6, 12]: 947 ± 236 u/dl
SGOT level vs carbon tetrachloride control ([6]; 200 mg/kg, result in words): significantly lowered
SGPT level vs carbon tetrachloride control ([6]; 200 mg/kg, result in words): significantly lowered
protection against carbon tetrachloride hepatotoxicity ([6]; result in words): protective effect against hepatotoxicity; also recorded: effective in protection against carbon tetrachloride hepatotoxicity

COC(=O)c1cc(OC)c2c(c1-c1c(C(=O)OC)cc(OC)c3c1OCO3)OCO2 [DDB, dimethyl 4,4'-dimethoxy-5,6,5',6'-dimethylenedioxybiphenyl-2,2'-dicarboxylate, reference compound]
Liver triglyceride ([2]; 200 mg/kg): 135 ± 46 mg/kg
SGOT ([2]; 200 mg/kg): 1217 ± 261 u/dl
SGPT ([2]; 200 mg/kg): 2035 ± 770 u/dl
Sleeping time [4, 7]: 91 ± 57 min
Sleeping time [4, 8]: 23 ± 10 min
Liver triglyceride [5, 9]: 56.2 ± 27.6 mg/kg
SGPT [5, 10]: 1100 ± 660 u/dl
SGOT [5, 11]: 1130 ± 651 u/dl
SGOT ([6]; 50 mg/kg, 9 mice per group): 1922 ± 174 u/dl
SGPT ([6]; 50 mg/kg, 9 mice per group): 2701 ± 243 u/dl
SGOT ([6]; 100 mg/kg): 2019 ± 130 u/dl
SGPT ([6]; 100 mg/kg, Compound 1 P < 0.01): 2965 ± 221 u/dl
SGOT ([6]; 200 mg/kg, Compound 1 P < 0.01): 1700 ± 185 u/dl
SGPT [6, 12]: 2303 ± 318 u/dl
